Test systems include A498 renal; CAKI-1 renal; EKVX NSCLC; KM12 colon; OVCAR-8 ovarian; RXF 393 renal; SK-MEL-28 melanoma; SK-MEL-5 melanoma; SN12C renal; SNB-19 CNS.
Common to all, as to assay: growth of human tumour cells (NCI), 48 h

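Dose response: 5 concentrations. Exposure: 48 h. Format: 96-well plates. Endpoint: linear interpolation; highest concentration if not reached. The concentration for 50% growth inhibition is given as GI50. At the TGI there is no net growth.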

Regarding `COCCc1c(C)c(C#N)c2n(C)c3ccccc3n2c1=O`, the TGI in the assay with A498 renal, in the assay with CAKI-1 renal, in the assay on EKVX NSCLC, with KM12 colon, in the assay with OVCAR-8 ovarian and in the assay on RXF 393 renal was over 10 µM each time. The TGI with SK-MEL-28 melanoma, in the assay with SK-MEL-5 melanoma, with SN12C renal and in the assay with SNB-19 CNS was over 10 µM throughout.

Turning to `C=C1C(=O)OC2CCCCC3OC3C12` (stereo not given), the TGI amounted to 29.1 µM in the assay on A498 renal; 9.83 µM in the assay on CAKI-1 renal; 34.6 µM with EKVX NSCLC; 31.8 µM in the assay with KM12 colon; 32.4 µM in the assay on OVCAR-8 ovarian; 30.1 µM in the assay with RXF 393 renal. The TGI with SK-MEL-28 melanoma was determined as 23.9 µM; in the assay on SK-MEL-5 melanoma it was 19.5 µM; with SN12C renal, 21.3 µM; in the assay on SNB-19 CNS, 36.8 µM.

As to `CCCCCCN(CCCCCC)CCCNc1nccc2ccccc12`, the GI50 in the assay with A498 renal is 1.08 µM; in the assay with CAKI-1 renal, 1.92 µM; in the assay with EKVX NSCLC it was 2.65 µM; in the assay on KM12 colon it was 1.81 µM; in the assay on OVCAR-8 ovarian, 1.67 µM; in the assay on RXF 393 renal, 1.82 µM. For the same compound, the GI50 is 1.64 µM with SK-MEL-28 melanoma, 1.7 µM in the assay with SK-MEL-5 melanoma, 2.27 µM in the assay with SN12C renal and 2.09 µM with SNB-19 CNS. For the same compound, the TGI in the assay on A498 renal was determined as 2.8 µM; with CAKI-1 renal it was 5.33 µM; in the assay on EKVX NSCLC, 11.8 µM; in the assay with KM12 colon it was 3.56 µM; in the assay on OVCAR-8 ovarian, 3.19 µM; in the assay on RXF 393 renal, 5.3 µM. Further, the TGI turned out to be 3.17 µM with SK-MEL-28 melanoma, 3.13 µM in the assay with SK-MEL-5 melanoma, 7.36 µM with SN12C renal and 6.01 µM with SNB-19 CNS.

Consider `COc1cccc(Nc2nc(NNC(=O)Cc3ccccc3)nc(NNC(=O)c3ccncc3)n2)c1`, for which the TGI in the assay on A498 renal, in the assay with CAKI-1 renal, in the assay with EKVX NSCLC, in the assay with KM12 colon, with OVCAR-8 ovarian and with RXF 393 renal was over 100 µM in each case. The TGI in the assay on SK-MEL-28 melanoma, in the assay with SK-MEL-5 melanoma, in the assay with SN12C renal and with SNB-19 CNS was over 100 µM each time. For the same compound, the GI50 with CAKI-1 renal, in the assay with EKVX NSCLC, in the assay with OVCAR-8 ovarian, in the assay on SK-MEL-5 melanoma and in the assay on SN12C renal was over 100 µM each time.

On to `O=C1Cc2cc(CCn3ccnc3)c(Cl)cc2N1`, for which the GI50 in the assay on A498 renal is 2.19 µM; in the assay with CAKI-1 renal it was 6.32 µM; with EKVX NSCLC, 0.613 µM; in the assay with KM12 colon, 3.58 µM; with OVCAR-8 ovarian it was 24.1 µM; in the assay on RXF 393 renal, 6.28 µM. The GI50 with SK-MEL-28 melanoma was 29.7 µM; in the assay with SK-MEL-5 melanoma, 8.12 µM; in the assay on SN12C renal, 16.5 µM; in the assay on SNB-19 CNS it was 22.1 µM. For the same compound, the TGI was 61.1 µM with A498 renal; over 100 µM in the assay with CAKI-1 renal; over 100 µM with EKVX NSCLC; 98.4 µM in the assay on KM12 colon; over 100 µM in the assay with OVCAR-8 ovarian; over 100 µM in the assay with RXF 393 renal. In addition, the TGI in the assay on SK-MEL-28 melanoma, with SK-MEL-5 melanoma, with SN12C renal and with SNB-19 CNS was over 100 µM in each case.

For `O=C(CCCn1c2c(sc3ncccc32)c(=O)n2nnc(-c3ccccc3)c12)NCCc1cnc[nH]1`, the GI50 is 6.84 µM with A498 renal; 2.89 µM with CAKI-1 renal; 15.2 µM with EKVX NSCLC; 1.89 µM in the assay on KM12 colon; 0.0952 µM with OVCAR-8 ovarian; 14.8 µM in the assay on RXF 393 renal. Besides, the GI50 was 17 µM in the assay on SK-MEL-28 melanoma, 16.1 µM with SK-MEL-5 melanoma, 0.331 µM in the assay with SN12C renal and 10.8 µM with SNB-19 CNS. Moreover, the TGI in the assay with A498 renal was determined as 22.6 µM; in the assay with CAKI-1 renal it was 14.4 µM; with EKVX NSCLC, 44.5 µM; with KM12 colon, 24 µM; in the assay with OVCAR-8 ovarian it was 17.3 µM; in the assay on RXF 393 renal, 34 µM. For the same compound, the TGI with SK-MEL-28 melanoma was 35 µM; in the assay on SK-MEL-5 melanoma, over 100 µM; with SN12C renal it was 13.4 µM; with SNB-19 CNS it was 33.7 µM.

On to `OC(c1ccccc1)(c1ccccc1)c1ccccn1`, for which the TGI in the assay on A498 renal, in the assay with CAKI-1 renal, with EKVX NSCLC, in the assay on KM12 colon, in the assay on OVCAR-8 ovarian and with RXF 393 renal was over 100 µM in each case. Further, the TGI with SK-MEL-28 melanoma, with SK-MEL-5 melanoma, with SN12C renal and in the assay with SNB-19 CNS was over 100 µM in each case.

As for `CCCOc1ccc(/C(Cl)=C(\C=O)c2ccc(OC)c(OC)c2)cc1OCCC`, the TGI was 38.5 µM in the assay with A498 renal; over 100 µM in the assay with CAKI-1 renal; 50.4 µM with EKVX NSCLC; 34.5 µM with KM12 colon; over 100 µM in the assay with OVCAR-8 ovarian; 25.3 µM with RXF 393 renal. Further, the TGI was 25.3 µM in the assay on SK-MEL-28 melanoma, 46.3 µM with SK-MEL-5 melanoma, over 100 µM in the assay with SN12C renal and over 100 µM in the assay on SNB-19 CNS.

In the case of `Cc1ccc(SSCCCS(=O)O)cc1`, the TGI is 69.9 µM in the assay on A498 renal; over 100 µM in the assay with CAKI-1 renal; 88.5 µM in the assay on EKVX NSCLC; over 100 µM in the assay on KM12 colon; 50 µM in the assay on OVCAR-8 ovarian; 72.3 µM in the assay on RXF 393 renal. For the same compound, the TGI in the assay with SK-MEL-28 melanoma, in the assay on SK-MEL-5 melanoma, with SN12C renal and with SNB-19 CNS was over 100 µM throughout.

With `CCCNc1nc(N(C)O)nc(N(C)O)n1`, the GI50 with A498 renal is 9.51 µM; in the assay with CAKI-1 renal, 3.15 µM; in the assay with EKVX NSCLC it was 2.04 µM; in the assay on KM12 colon, 3.09 µM; with OVCAR-8 ovarian, 2.45 µM; with RXF 393 renal, 2.96 µM. Besides, the GI50 is 2.64 µM in the assay with SK-MEL-28 melanoma, 1.6 µM with SK-MEL-5 melanoma, 4.27 µM in the assay with SN12C renal and 4.07 µM with SNB-19 CNS. The TGI is over 62.6 µM in the assay with A498 renal; 43.7 µM with CAKI-1 renal; over 100 µM in the assay with EKVX NSCLC; over 100 µM in the assay with KM12 colon; over 100 µM in the assay with OVCAR-8 ovarian; over 62 µM with RXF 393 renal. Further, the TGI with SK-MEL-28 melanoma is over 91 µM; with SK-MEL-5 melanoma it was 6.61 µM; in the assay with SN12C renal, over 100 µM; in the assay with SNB-19 CNS, over 100 µM.

For the origin of these results see PubChem BioAssay (NCI).
